Measurements published in the supplement of paper PMC10307832.

Experiments:
Test in all cases: relative viability (nuclei count vs DMSO), 5 days (fraction); higher = more cells survive
Linsitinib + Decitabine = compound: C[C@]1(O)C[C@@H](c2nc(-c3ccc4ccc(-c5ccccc5)nc4c3)c3c(N)nccn32)C1 [Linsitinib] + Nc1ncn([C@H]2C[C@H](O)[C@@H](CO)O2)c(=O)n1 [Decitabine] (partner 2 µM)
How it was run: (§1)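 Lung cancer cell lines in 1536-well plates got either a single drug or a fixed anchor-drug dose together with five library-drug doses (not always all listed) in √10 steps, by pin tool, on the day after seeding. Nuclei were counted after 5 days, and relative viability is the treated-to-vehicle ratio of nuclei counts. Values are medians of duplicate plates.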

Linsitinib + Luminespib = compound: C[C@]1(O)C[C@@H](c2nc(-c3ccc4ccc(-c5ccccc5)nc4c3)c3c(N)nccn32)C1 [Linsitinib] + CCNC(=O)c1noc(-c2cc(C(C)C)c(O)cc2O)c1-c1ccc(CN2CCOCC2)cc1 [Luminespib] (partner 0.01 µM)
How it was run: as §1

Ispinesib + Lapatinib = compound: Cc1ccc(C(=O)N(CCCN)[C@@H](c2nc3cc(Cl)ccc3c(=O)n2Cc2ccccc2)C(C)C)cc1 [Ispinesib] + CS(=O)(=O)CCNCc1ccc(-c2ccc3ncnc(Nc4ccc(OCc5cccc(F)c5)c(Cl)c4)c3c2)o1 [Lapatinib] (partner 2 µM)
How it was run: as §1

| Cell Line | relative viability (Linsitinib + Decitabine; first compound 0.03162 µM) | relative viability (Linsitinib + Decitabine; first compound 0.1 µM) | relative viability (Linsitinib + Decitabine; first compound 0.3162 µM) | relative viability (Linsitinib + Decitabine; first compound 1 µM) | relative viability (Linsitinib + Luminespib; first compound 0.01 µM) | relative viability (Linsitinib + Luminespib; first compound 0.03162 µM) | relative viability (Linsitinib + Luminespib; first compound 0.1 µM) | relative viability (Linsitinib + Luminespib; first compound 0.3162 µM) | relative viability (Linsitinib + Luminespib; first compound 1 µM) | relative viability (Ispinesib + Lapatinib; first compound 0.001 µM) | relative viability (Ispinesib + Lapatinib; first compound 0.003162 µM) | relative viability (Ispinesib + Lapatinib; first compound 0.01 µM) | relative viability (Ispinesib + Lapatinib; first compound 0.03162 µM) | relative viability (Ispinesib + Lapatinib; first compound 0.1 µM) | relative viability (Linsitinib + Decitabine; first compound 0.01 µM) |
| --- | --- | --- | --- | --- | --- | --- | --- | --- | --- | --- | --- | --- | --- | --- | --- |
| H3255 | 0.627 | 0.559 | 0.518 | 0.686 | 0.87 | 1 | 0.869 | 0.594 | 0.917 | 0.214 | 0.171 | 0.205 | 0.176 | 0.236 | – |
| HARA | 0.533 | 0.526 | – | 0.678 | 0.715 | 0.828 | 0.945 | – | 0.173 | 0.8 | 0.856 | 0.987 | 0.151 | 0.144 | 0.518 |
| HCC-15 | 0.509 | 0.61 | 0.28 | 0.368 | 0.218 | 0.296 | 0.271 | – | 0.34 | 0.91 | 0.983 | 1.03 | 0.402 | 0.14 | 0.63 |
| HCC-44 | 0.977 | 0.919 | 0.552 | 0.746 | 1.12 | 1.01 | 0.818 | 0.68 | 0.912 | 1.05 | 1.01 | 1.37 | 0.658 | 0.158 | 0.922 |
| HCC-78 | 0.818 | 0.649 | 0.588 | 0.682 | – | – | – | – | – | 0.762 | 1.47 | 0.811 | – | 0.308 | – |
| HCC-366 | 0.354 | 0.349 | 0.293 | 0.326 | – | – | – | – | – | 1.03 | 1.12 | 1.33 | 0.0151 | 0.0387 | 0.35 |
| HCC-827 | 0.427 | 0.287 | – | 0.34 | 0.733 | 0.599 | 0.648 | – | 0.657 | 0.194 | 0.194 | 0.181 | 0.189 | 0.0607 | 0.165 |
| HOP-62 | 0.241 | 0.194 | – | 0.201 | 0.939 | 0.964 | 0.923 | – | 0.694 | 1.11 | 1.07 | 1.15 | 1.11 | 0.231 | 0.194 |
| IA-LM | – | – | – | – | – | – | – | – | – | 0.833 | 1.03 | 0.513 | 0.123 | 0.197 | – |
| LC-2-ad | 0.719 | 0.864 | 0.726 | 0.742 | 1 | 1.07 | 0.971 | 0.873 | 0.877 | 0.949 | 1.02 | 1.07 | 0.504 | 0.114 | 0.776 |
| LCLC-97TM1 | 0.261 | 0.24 | 0.204 | 0.245 | 0.753 | 0.854 | 0.622 | 0.501 | 0.678 | 0.998 | 1.18 | 0.858 | 0.673 | 0.112 | 0.251 |
| LCLC-103H | 0.713 | 0.658 | 0.628 | 0.739 | 1.06 | 0.965 | 0.918 | 0.813 | 0.838 | – | – | – | – | – | 0.757 |
| LK-2 | 0.407 | 0.232 | 0.187 | 0.185 | 0.173 | 0.152 | 0.187 | 0.192 | 0.166 | 1.07 | 1.07 | 0.908 | 0.681 | 0.313 | 0.221 |
